Patent US11607422B2, “Uttroside B and derivatives thereof as therapeutics for hepatocellular carcinoma” (Rajiv Gandhi Centre for Biotechnology, an Autonomous …, priority 2016, dated 2023)
pIC50: −log10 of the molar value.

How the values were obtained:
HepG2 cells = assay: Autophagy flux assay using PtfLC3 (GFP-RFP-LC3) reporter protein; assay type: cell-based, human; details: 500 nM, 24 h, transfected HepG2
Source text: The development of a new vector called ptf-LC3B leading to the expression of a double-tagged GFP-RFP-LC3B protein has helped in the study of autophagy flux and this recombinant protein allows to distinguish between autophagosomes (in yellow) and autophagolysosomes (in red).^33 The pGFP-mRFP-LC3B (ptf-LC3) vector was purchased from Addgene (21074). Briefly, plasmid present in the bacterial pellet was isolated according to manufacturer's instruction (GenElute™ Plasmid Miniprep Kit-Sigma-Aldrich). HepG2 cells were transfected transiently with tandem repeats of GFP-RFP tagged LC3 (ptfLC3) using the Lipofectamine LTX and Plus Reagent Kit (Invitrogen, USA) according to manufacturer's protocol. Briefly, PtfLC3 vector Opti-MEM transfection medium (Solution A) was mixed with Lipofectamine reagent dissolved in Opti-MEM transfection medium (Solution B) and incubated for 45 min at room temperature. […]
Quantitative analysis of autophagy flux using tandem GFP-RFP LC3 reporter protein. […] FIG. 29 is a bar diagram showing the quantitative analysis of autophagy induced by Uttroside B in HepG2 cells. HepG2 cells were transfected transiently with plasmid encoding GFP-RFP-LC3 as described previously and the punctae observed were counted and plotted as a histogram. The next attempt was to verify and quantitate the autophagic flux induced by Uttroside B using a tandem GFP-RFP LC3 reporter protein. […]

HCT-116 = assay: MTT cell viability assay in HCT-116 cells; assay type: cell-based; details: 72 h
Experimental: FIG. 2A is a graph comparison of IC50 of Uttroside B in a panel of cancer cells of different origin. The cancer cell lines HeLa, A375, HepG2, MDA-MB-231, HL 60, A549 and HCT116 were treated with Uttroside B as indicated, incubated for 72 h and the cell viability was assessed by MTT assay. FIG. 2B is a graph showing dose dependent effect of Uttroside B in the liver cancer cell lines and in normal immortalized hepatocytes. The liver cancer cell lines HepG2, Hep3B, SKHEP-1, Huh-7 and normal hepatocytes (Chang liver), were treated with Uttroside B incubated for 72 h and the cell viability was assessed by MTT assay. FIG. 2C is a graph comparison of IC50 of Uttroside B with sorafenib. HepG2 cells were treated with Uttroside B as indicated, incubated for 72 h, and the cell viability was assessed by MTT assay. […] The clones developed were counted and plotted as a graph. Colony containing more than four cells was counted as one clone. […]
MTT [3-(4,5-dimethylthiazole-2-yl)-2,5-diphenyltetrazolium bromide] assay is a standard colorimetric assay, suitable for analyzing proliferation, viability, and cytotoxicity. […] At the end of incubation, the optical density was measured at 570 nm using ELISA plate reader (Bio-Rad). The relative cell viability in percentage was calculated as (A570 of treated samples/A570 of untreated samples)×100. […]

AP-1 in HepG2 cells = assay: Electrophoretic mobility shift assay of AP-1; assay type: cell-based, human; details: HepG2, EMSA
Experimental: Stocks of crude extracts and isolated compound of S. nigrum was prepared in DMSO for the in vitro studies and stored at −20° C. The DMSO concentration in all studies, including controls, was ≤0.2%. Cell viability assay was performed after 72 h of drug treatment while whole cell lysate preparation and cell cycle analysis were done after 24 h and 48 h of drug treatment. For studying NF-κB and AP-1, Uttroside B was incubated for 2 h before extraction.
Radiolabeling of oligonucleotide probes for electrophoretic mobility shift assay:HepG2 Cells were treated with Uttroside B for two hours, scraped and suspended in 150 μL of lysis buffer (10 mM HEPES(pH 7.9), 10 mM KCl, 0.1 mM EDTA, 0.1 mM EGTA, 1 mM DTT, 0.5 mMphenylmethylsulfonyl fluoride, 2 μg/mL leupeptin, 2 μg/mL aprotinin, 0.5 mg/ml benzamidine) for 30 min, after which 4.5 μl of 10% Nonidet P-40 was added. […]

## C[C@H](CC[C@@]1(O)O[C@H]2C[C@H]3[C@@H]4CC[C@H]5C[C@@H](O[C@@H]6O[C@H](CO)[C@H](O[C@@H]7O[C@H](CO)[C@@H](O)[C@H](O[C@@H]8OC[C@@H](O)[C@H](O)[C@H]8O)[C@H]7O[C@@H]7O[C@H](CO)[C@@H](O)[C@H](O)[C@H]7O)[C@H](O)[C@H]6O)CC[C@]5(C)[C@H]4CC[C@]3(C)[C@H]2[C@@H]1C)CO[C@@H]1O[C@H](CO)[C@@H](O)[C@H](O)[C@H]1O [Uttroside B]
HepG2 cells
  GFP-RFP-LC3 puncta: increase in amount of yellow puncta and red puncta
HCT-116
  pIC50: 5.22
AP-1 in HepG2 cells
  AP-1 (downstream target of MAPK signaling): down-regulated
